Laboratory results reported in ChEMBL document CHEMBL1139195, “Further studies of tyrosine surrogates in opioid receptor peptide ligands” (Bioorg Med Chem Lett, 2007).
*1 amine or outer side, *2 acyl side, *3 side chain or, on linkers, in order; H or OH if unused. Where a SMILES comes first, the peptide text is derived from it. [ ]: non-standard residue; d: D form. Ala(2-NH2-benzothiazol-6-yl) = Nc1nc2ccc(C[C@H](N)C(=O)O)cc2s1; Phe(2,6-Me2,4-CONH2) = Cc1cc(C(N)=O)cc(C)c1C[C@H](N)C(=O)O; Phe(3-CONH2) = NC(=O)c1cccc(C[C@H](N)C(=O)O)c1; Phe(4-CONH2) = NC(=O)c1ccc(C[C@H](N)C(=O)O)cc1; X1 = O=C([C@H](Cc1cc[n+]([O-])cc1)N[*:1])[*:2]

How the values were obtained:
Mu-type opioid receptor [1] = target: T1, Mu-type opioid receptor (Homo sapiens, UniProt P35372)
T1 sequence (P35372 whole entry): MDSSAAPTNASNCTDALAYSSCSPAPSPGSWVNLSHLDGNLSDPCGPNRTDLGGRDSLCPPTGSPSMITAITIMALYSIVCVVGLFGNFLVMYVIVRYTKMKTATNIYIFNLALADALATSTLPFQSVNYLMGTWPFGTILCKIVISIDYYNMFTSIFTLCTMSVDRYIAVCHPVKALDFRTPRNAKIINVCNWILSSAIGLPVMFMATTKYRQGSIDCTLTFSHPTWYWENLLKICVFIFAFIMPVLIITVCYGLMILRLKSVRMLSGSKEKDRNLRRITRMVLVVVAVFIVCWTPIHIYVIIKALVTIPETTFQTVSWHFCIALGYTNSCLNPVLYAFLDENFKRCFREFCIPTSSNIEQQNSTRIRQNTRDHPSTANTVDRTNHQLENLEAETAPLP

[2] = target: T2, Delta-type opioid receptor (Homo sapiens, UniProt P41143)
T2 sequence (P41143 whole entry): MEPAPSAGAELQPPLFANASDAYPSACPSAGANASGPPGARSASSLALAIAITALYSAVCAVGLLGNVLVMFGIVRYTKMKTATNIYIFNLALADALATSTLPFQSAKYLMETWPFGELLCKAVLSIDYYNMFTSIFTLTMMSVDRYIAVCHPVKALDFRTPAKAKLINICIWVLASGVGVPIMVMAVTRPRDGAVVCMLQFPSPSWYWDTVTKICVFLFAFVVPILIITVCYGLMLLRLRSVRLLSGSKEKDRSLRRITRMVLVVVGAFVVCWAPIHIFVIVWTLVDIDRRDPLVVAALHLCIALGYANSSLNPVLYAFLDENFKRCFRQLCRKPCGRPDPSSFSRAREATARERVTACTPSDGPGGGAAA

[3] = target: Kappa-type opioid receptor (Homo sapiens, UniProt P41145)
Chain of Kappa-type opioid receptor (P41145 whole entry): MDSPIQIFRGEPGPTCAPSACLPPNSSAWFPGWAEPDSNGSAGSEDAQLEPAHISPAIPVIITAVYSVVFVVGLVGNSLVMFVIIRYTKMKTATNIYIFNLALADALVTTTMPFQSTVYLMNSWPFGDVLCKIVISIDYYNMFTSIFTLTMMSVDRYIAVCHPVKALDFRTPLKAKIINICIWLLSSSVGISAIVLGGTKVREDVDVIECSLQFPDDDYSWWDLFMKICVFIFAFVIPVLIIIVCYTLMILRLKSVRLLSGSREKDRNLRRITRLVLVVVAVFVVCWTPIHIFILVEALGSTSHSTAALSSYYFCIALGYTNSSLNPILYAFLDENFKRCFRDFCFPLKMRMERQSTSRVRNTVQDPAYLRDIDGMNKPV

[4] = target: T2, Delta-type opioid receptor; assay type: functional
Mu-type opioid receptor [5] = target: T1, Mu-type opioid receptor; assay type: functional

| Compound | Ki (Mu-type opioid receptor [1]) | Ki [2] | Ki [3] | EC50 [4] | EC50 (Mu-type opioid receptor [5]) |
| --- | --- | --- | --- | --- | --- |
| CC(C)C[C@@H](NC(=O)[C@H](Cc1ccccc1)NC(=O)CNC(=O)[C@@H](C)NC(=O)[C@@H](N)Cc1cccc(C(N)=O)c1)C(=O)O | 560 nM | 170 nM | > 10000 nM | 1700 nM |  |
| CC(C)C[C@@H](NC(=O)[C@H](Cc1ccccc1)NC(=O)CNC(=O)[C@@H](C)NC(=O)[C@@H](N)Cc1ccc2nc(N)sc2c1)C(=O)O | 1200 nM | 10 nM | > 10000 nM | 150 nM |  |
| Cc1cc(C(N)=O)cc(C)c1C[C@H](N)C(=O)N[C@H](C)C(=O)NCC(=O)N[C@@H](Cc1ccccc1)C(=O)N[C@H](CC(C)C)C(=O)O | 9.8 nM | 0.78 nM | 2400 nM | 2.5 nM | 49 nM |
| CSCC[C@H](NC(=O)[C@H](Cc1ccccc1)NC(=O)CNC(=O)CNC(=O)[C@@H](N)Cc1ccc(C(N)=O)cc1)C(N)=O (H-[Phe(4-CONH2)]GGFM-NH2) | 18 nM | 1.3 nM | 460 nM | 10 nM | 270 nM |
| Cc1cc(C(N)=O)cc(C)c1C[C@H](N)C(=O)NCC(=O)NCC(=O)N[C@@H](Cc1ccccc1)C(=O)N[C@@H](CC(C)C)C(=O)O (H-[Phe(2,6-Me2,4-CONH2)]GGFL-OH) | 9.8 nM | 1 nM | 1300 nM | 4.1 nM | 180 nM |
| CC(C)C[C@H](NC(=O)[C@H](Cc1ccccc1)NC(=O)CNC(=O)CNC(=O)[C@@H](N)Cc1cc[n+]([O-])cc1)C(=O)O (H-[X1]GGFL-OH) | > 10000 nM | > 10000 nM | > 10000 nM |  |  |
| CC(C)C[C@@H](NC(=O)[C@H](Cc1ccccc1)NC(=O)CNC(=O)[C@@H](C)NC(=O)[C@@H](N)Cc1ccc(C(=O)O)cc1)C(=O)O | > 10000 nM | 1100 nM | > 10000 nM |  |  |
| CC(C)C[C@H](NC(=O)[C@H](Cc1ccccc1)NC(=O)CNC(=O)CNC(=O)[C@@H](N)Cc1cccc(C(N)=O)c1)C(=O)O (H-[Phe(3-CONH2)]GGFL-OH) | > 10000 nM | 475 nM | > 10000 nM |  |  |
| CSCC[C@H](NC(=O)[C@H](Cc1ccccc1)NC(=O)CNC(=O)[C@@H](C)NC(=O)[C@@H](N)Cc1ccc2nc(N)sc2c1)C(=O)O | 100 nM | 1 nM | > 10000 nM | 24 nM | 350 nM |
| CSCC[C@H](NC(=O)[C@H](Cc1ccccc1)NC(=O)CNC(=O)CNC(=O)[C@@H](N)Cc1ccc(O)cc1)C(N)=O |  |  | 210 nM |  |  |
| Cc1cc(C(N)=O)cc(C)c1C[C@H](N)C(=O)N[C@H](CO)C(=O)NCC(=O)N[C@@H](Cc1ccccc1)C(=O)N[C@@H](CC(C)C)C(=O)N[C@H](C(=O)O)[C@@H](C)O | 19 nM | 1.2 nM | > 10000 nM | 3.5 nM | 250 nM |
| CC(C)C[C@H](NC(=O)[C@H](Cc1ccccc1)NC(=O)CNC(=O)CNC(=O)[C@@H](N)Cc1ccc2nc(N)sc2c1)C(=O)O (H-[Ala(2-NH2-benzothiazol-6-yl)]GGFL-OH) | 1200 nM | 19 nM | > 10000 nM | 580 nM |  |
| CC1(C)SSC(C)(C)[C@@H](NC(=O)[C@@H](N)Cc2ccc(C(N)=O)cc2)C(=O)NCC(=O)N[C@@H](Cc2ccccc2)C(=O)N[C@H]1C(=O)O | > 10000 nM | 19 nM | > 10000 nM | 320 nM |  |
| CSCC[C@H](NC(=O)[C@H](Cc1ccccc1)NC(=O)CNC(=O)CNC(=O)[C@@H](N)Cc1ccc(C(N)=O)cc1)C(=O)O (H-[Phe(4-CONH2)]GGFM-OH) | 28 nM | 1.8 nM | 1030 nM | 5.2 nM | 140 nM |
| CC(C)C[C@H](NC(=O)[C@H](Cc1ccccc1)NC(=O)CNC(=O)[C@@H](CO)NC(=O)[C@@H](N)Cc1cc[n+]([O-])cc1)C(=O)N[C@H](C(=O)O)[C@@H](C)O | > 10000 nM | 360 nM | > 10000 nM |  |  |
| CC(C)C[C@H](NC(=O)[C@H](Cc1ccccc1)NC(=O)CNC(=O)[C@@H](CO)NC(=O)[C@@H](N)Cc1cccc(C(N)=O)c1)C(=O)N[C@H](C(=O)O)[C@@H](C)O | 1100 nM | 42 nM | > 10000 nM | 730 nM |  |
| CC(C)C[C@H](NC(=O)[C@H](Cc1ccccc1)NC(=O)CNC(=O)[C@@H](CO)NC(=O)[C@@H](N)Cc1ccc2nc(N)sc2c1)C(=O)N[C@H](C(=O)O)[C@@H](C)O | 640 nM | 3.8 nM | > 10000 nM | 97 nM |  |
| CSCC[C@H](NC(=O)[C@H](Cc1ccccc1)NC(=O)CNC(=O)CNC(=O)[C@@H](N)Cc1ccc(O)cc1)C(=O)O |  |  | > 10000 nM |  |  |
| CC(C)C[C@@H](NC(=O)[C@H](Cc1ccccc1)NC(=O)CNC(=O)[C@@H](C)NC(=O)[C@@H](N)Cc1ccc(N)cc1)C(=O)O | 1400 nM | 19 nM | > 10000 nM | 74 nM |  |
| CC(C)C[C@@H](NC(=O)[C@H](Cc1ccccc1)NC(=O)CNC(=O)[C@@H](C)NC(=O)[C@@H](N)Cc1cc[n+]([O-])cc1)C(=O)O | > 10000 nM | > 10000 nM | > 10000 nM |  |  |
